Measurements as given in patent US12310942B2, “Pharmaceutical compositions comprising statins and hyaluronic acid derivatives” (FIDIA FARMACEUTICI S.p.A., priority 2019, dated 2025).
Where two headings read alike, the source gives them in different places.

Test system: bovine cartilage biopsies
Conditions: IL-1β and OSM 10 ng/mL, 21 days, FIG. 3
Protocol: For this purpose, cartilage biopsies were collected from the patello-femoral sulcus and femoral condyles from the femur of 1 adult bovine (15-18 months). […] The biopsies (Ø=3 mm) were taken with a steel punch.
Each biopsy was transferred to a well of a 48-well MW and washed twice with 500 μL PBS 1× (Euroclone, cat. no. ECB4004L, Italy). […] The biopsies were incubated for 24 h at 37° C. 5% CO2. After incubation, the biopsies were washed with 500 μL PBS 1×, and 500 μL DMEM/F-12+2% FBS containing the dilution of the compound to be tested were added to all the wells. Each statin was used at the concentrations of 10 μM and 2.5 μM. 4 biopsies were used for each condition. After 7, 14 and 21 days, the biopsy culture medium was aspirated and replaced with 500 μL of fresh culture medium containing the appropriate concentrations of pro-inflammatory cytokines (IL-1β and OSM, 10 ng/mL) and the active ingredients to be tested. The biopsy culture medium was harvested after 21 days and used to determine the soluble collagen content. The Sircol assay was conducted according to the manufacturer's instructions, and quantitation was effected by spectrophotometric reading at 555 nm.

SMILES	collagen release induced by IL-1β and OSM (statin 2.5 μM)	collagen release induced by IL-1β and OSM (statin 10 μM)
CC(C)c1c(C(=O)Nc2ccccc2)c(-c2ccccc2)c(-c2ccc(F)cc2)n1CC[C@@H](O)C[C@@H](O)CC(=O)O [atorvastatin]	significant reduction in collagen release	significant reduction in collagen release
CC[C@H](C)C(=O)O[C@H]1C[C@@H](C)C=C2C=C[C@H](C)[C@H](CC[C@@H]3C[C@@H](O)CC(=O)O3)[C@H]21 [lovastatin]	values comparable to those of the untreated control	significant reduction in collagen release
